Test: head-to-tail lactamisation of side-chain-protected linear peptides, PyBOP (2 equiv), DIPEA (3 equiv, added dropwise), overnight at rt under N2; then TFA global deprotection and prep RP-HPLC
Conditions: the molecule shown is the open-chain precursor, DMF, 1.0 mM, 25.0 °C, 2 steps

Row | SMILES | ring closure, yield over several steps (15-membered ring) [%] | ring closure, yield over several steps (21-membered ring) [%] | also measured
1 | C[C@H](N)C(=O)N[C@@H](COC(C)(C)C)C(=O)N[C@@H](Cc1ccc(OC(C)(C)C)cc1)C(=O)N[C@@H](COC(C)(C)C)C(=O)N[C@@H](COC(C)(C)C)C(=O)N[C@@H](CCCCNC(=O)OC(C)(C)C)C(=O)N1CCC[C@H]1C(=O)N[C@@H](Cc1ccccc1)C(=O)N[C@@H](COC(C)(C)C)C(=O)O | – | – | ring closure, yield over several steps (27-membered ring): 62%
2 | Cc1c(C)c(S(=O)(=O)NC(=N)NCCC[C@H](NC(=O)CN)C(=O)N[C@H](C(=O)N[C@@H](CCCCNC(=O)OC(C)(C)C)C(=O)N[C@@H](C)C(=O)O)C(C)C)c(C)c2c1OC(C)(C)C2 [H-Gly-Arg(Pbf)-Val-Lys(Boc)-Ala-OH] | 63 | – | –
3 | CC(C)C[C@H](NC(=O)CN)C(=O)N[C@@H](Cc1cn(C(c2ccccc2)(c2ccccc2)c2ccccc2)cn1)C(=O)N[C@@H](Cc1ccccc1)C(=O)N[C@@H](C)C(=O)N[C@@H](Cc1ccccc1)C(=O)N1CCC[C@H]1C(=O)O [H-Gly-Leu-His(Trt)-Phe-Ala-Phe-Pro-OH] | – | 56 | –
4 | CC(C)C[C@H](NC(=O)CN)C(=O)N[C@@H](COC(C)(C)C)C(=O)N[C@@H](Cc1ccccc1)C(=O)N[C@@H](C)C(=O)N[C@@H](Cc1ccccc1)C(=O)N1CCC[C@H]1C(=O)O [H-Gly-Leu-Ser(tBu)-Phe-Ala-Phe-Pro-OH] | – | 54 | –
5 | Cc1c(C)c(S(=O)(=O)NC(=N)NCCC[C@H](NC(=O)[C@H](Cc2ccc(OC(C)(C)C)cc2)NC(=O)CN)C(=O)N[C@@H](Cc2ccccc2)C(=O)N[C@@H](COC(C)(C)C)C(=O)O)c(C)c2c1OC(C)(C)C2 [H-Gly-Tyr(tBu)-Arg(Pbf)-Phe-Ser(tBu)-OH] | 64 | – | –
6 | CC(C)C[C@H](NC(=O)[C@@H]1CCCN1C(=O)[C@@H](NC(=O)[C@H](Cc1ccc(OC(C)(C)C)cc1)NC(=O)CN)C(C)C)C(=O)N[C@@H](Cc1cn(C(=O)OC(C)(C)C)c2ccccc12)C(=O)N1CCC[C@H]1C(=O)O [H-Gly-Tyr(tBu)-Val-Pro-Leu-Trp(Boc)-Pro-OH] | – | 57 | –
7 | CC(C)[C@H](NC(=O)CN)C(=O)N[C@@H](C)C(=O)N[C@@H](Cc1cn(C(=O)OC(C)(C)C)c2ccccc12)C(=O)N[C@@H](C)C(=O)O [H-Gly-Val-Ala-Trp(Boc)-Ala-OH] | 48 | – | –
8 | CC(C)[C@H](NC(=O)CN)C(=O)N[C@@H](CCCCNC(=O)OC(C)(C)C)C(=O)N[C@@H](Cc1ccc(OC(C)(C)C)cc1)C(=O)N[C@@H](C)C(=O)O [H-Gly-Val-Lys(Boc)-Tyr(tBu)-Ala-OH] | 68 | – | –
9 | CC(C)[C@H](NC(=O)[C@@H]1CCCN1C(=O)[C@@H](NC(=O)CN)C(C)C)C(=O)N[C@@H](Cc1cn(C(=O)OC(C)(C)C)c2ccccc12)C(=O)N[C@@H](C)C(=O)O [H-Gly-Val-Pro-Val-Trp(Boc)-Ala-OH] | – | – | ring closure, yield over several steps (18-membered ring): 51%
10 | CC(C)C[C@H](NC(=O)CNC(=O)[C@H](Cc1cn(C(c2ccccc2)(c2ccccc2)c2ccccc2)cn1)NC(=O)[C@@H](NC(=O)CNC(=O)[C@@H](N)Cc1ccccc1)[C@@H](C)OC(C)(C)C)C(=O)N1CCC[C@H]1C(=O)N[C@@H](C)C(=O)N1CCC[C@H]1C(=O)O [H-Phe-Gly-Thr(tBu)-His(Trt)-Gly-Leu-Pro-Ala-Pro-OH] | – | – | ring closure, yield over several steps (27-membered ring): 57%

— PMC12667733
